According to US10294202B2, “Pyrrolidinones as herbicides” (FMC Corporation, priority 2013, dated 2019):

Experiments:
[1] = test system: crabgrass, large; assay: Test C pre-/postemergence herbicide test; assay type: in vivo, Digitaria sanguinalis
Summary of the method: (§1)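 Visual rating, 0 (no effect) to 100 (complete control), versus untreated controls after 13 to 15 days in the greenhouse. Pre: seeds in loam/sand, sprayed at planting. Post: 1- to 4-leaf plants (2 to 18 cm) in peat-based mix. Compounds in non-phytotoxic solvent plus surfactant.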

[2] = test system: velvetleaf; assay: Test C pre-/postemergence herbicide test; assay type: in vivo, Abutilon theophrasti
Summary of the method: as §1

[3] = test system: corn; assay: Test A pre-/postemergence herbicide test; assay type: in vivo, Zea mays; settings: Postemergence
Summary of the method: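 Seeds sown in loam soil/sand blend received a preemergence directed soil spray of test chemical in non-phytotoxic solvent with surfactant; postemergence plants (2–10 cm, one- to two-leaf stage) were sprayed with the same formulation. After about 10 days in greenhouse, injury was rated visually versus untreated controls, 0 (no effect) to 100 (complete control).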

[4] = test system: rice; assay: Test B flooded paddy test; assay type: in vivo, Oryza sativa; settings: 500 g ai/ha, Flood; scale of 0 to 100 where 0 is no effect and 100 is complete control
Summary of the method: (§2)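 2-leaf plants; flood 3 cm over soil; compound into paddy water; depth held. Greenhouse 13–15 d. Visual rating vs controls, 0 (no effect) to 100 (complete control); dash = not tested.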

[5] = test system: barnyardgrass; assay: Test B flooded paddy test; assay type: in vivo, Echinochloa crus-galli; settings: 500 g ai/ha, Flood; scale of 0 to 100 where 0 is no effect and 100 is complete control
Summary of the method: as §2

[6] = test system: ducksalad; assay: Test B flooded paddy test; assay type: in vivo, Heteranthera limosa; settings: 500 g ai/ha, Flood; scale of 0 to 100 where 0 is no effect and 100 is complete control
Summary of the method: as §2

[7] = test system: soybean; assay: Test C pre-/postemergence herbicide test; assay type: in vivo, Glycine max
Summary of the method: as §1

[8] = test system: oilseed rape; assay: Test C pre-/postemergence herbicide test; assay type: in vivo, Brassica napus
Summary of the method: as §1

[9] = test system: blackgrass; assay: Test C pre-/postemergence herbicide test; assay type: in vivo, Alopecurus myosuroides
Summary of the method: as §1

[10] = test system: ryegrass, Italian; assay: Test C pre-/postemergence herbicide test; assay type: in vivo, Lolium multiflorum
Summary of the method: as §1

[11] = test system: waterhemp; assay: Test C pre-/postemergence herbicide test; assay type: in vivo, Amaranthus rudis
Summary of the method: as §1

[12] = test system: sedge, umbrella; assay: Test B flooded paddy test; assay type: in vivo, Cyperus difformis; settings: 500 g ai/ha, Flood; scale of 0 to 100 where 0 is no effect and 100 is complete control
Summary of the method: as §2

[13] = Postemergence, 31 g ai/ha, scale 0 to 100 (0 no effect, 100 complete control)
[14] = Postemergence, 62 g ai/ha, scale 0 (no effect) to 100 (complete control)
[15] = Postemergence, 125 g ai/ha, scale 0 to 100 (0 no effect, 100 complete control)
[16] = Postemergence, 250 g ai/ha, scale 0 to 100 (0 no effect, 100 complete control)
[17] = Preemergence, 31 g ai/ha, scale 0 to 100, 0 is no effect and 100 is complete control
[18] = Preemergence, 62 g ai/ha, scale 0 to 100 (0 no effect, 100 complete control)
[19] = Preemergence, 125 g ai/ha, scale 0 to 100 (0 no effect, 100 complete control)
[20] = 125 g ai/ha, 0 to 100 scale, 0 is no effect, 100 is complete control
[21] = 500 g ai/ha, 0 to 100 scale (0 no effect, 100 complete control)
[22] = Preemergence, 125 g ai/ha, scale 0 to 100

O=C1NCC(c2cc(F)cc(F)c2)C1C(=O)Nc1ccc(F)cc1F (racemic) [Compound 278]
Plant response rating, Crabgrass, Large [1, 13]: 0 | Plant response rating, Crabgrass, Large [1, 14]: 30 | Plant response rating, Crabgrass, Large [1, 15]: 65 | Plant response rating, Crabgrass, Large [1, 16]: 75 | Crabgrass, Large plant response rating [1, 17]: 90 | Crabgrass, Large plant response rating [1, 18]: 95 | Plant response rating, Crabgrass, Large [1, 19]: 98 | Plant response rating (scale of 0 to 100), Crabgrass, Large ([1]; Preemergence, 250 g ai/ha): 100 | Plant response rating, Velvetleaf [2, 13]: 0 | Plant response rating, Velvetleaf [2, 14]: 0 | Plant response rating, Velvetleaf [2, 15]: 10 | Plant response rating, Velvetleaf [2, 16]: 20 | Velvetleaf plant response rating [2, 17]: 0 | Velvetleaf plant response rating [2, 18]: 0 | Plant response rating, Velvetleaf [2, 19]: 0 | Plant response rating (scale of 0 to 100), Velvetleaf ([2]; Preemergence, 250 g ai/ha): 0 | Plant response rating, Corn [3, 20]: 0 | Plant response rating, Corn [3, 21]: 0 | Plant response rating, Rice [4]: 0 | Plant response rating, Barnyardgrass [5]: 60 | Plant response rating, Ducksalad [6]: 100 | Plant response rating, Soybean [7, 13]: 50 | Plant response rating, Soybean [7, 14]: 55 | Plant response rating, Soybean [7, 15]: 40 | Plant response rating, Soybean [7, 16]: 15 | Soybean plant response rating [7, 17]: 0 | Soybean plant response rating [7, 18]: 0 | Plant response rating, Soybean [7, 19]: 10 | Plant response rating (scale of 0 to 100), Soybean ([7]; Preemergence, 250 g ai/ha): 10 | Plant response rating, Oilseed Rape [8, 13]: 0 | Plant response rating, Oilseed Rape [8, 14]: 0 | Plant response rating, Oilseed Rape [8, 15]: 5 | Plant response rating, Oilseed Rape [8, 16]: 0 | Oilseed Rape plant response rating [8, 17]: 0 | Oilseed Rape plant response rating [8, 18]: 0 | Plant response rating, Oilseed Rape [8, 19]: 0 | Plant response rating (scale of 0 to 100), Oilseed Rape ([8]; Preemergence, 250 g ai/ha): 5 | Plant response rating, Blackgrass [9, 13]: 0 | Plant response rating, Blackgrass [9, 14]: 0 | Plant response rating, Blackgrass [9, 15]: 0 | Plant response rating, Blackgrass [9, 16]: 0 | Blackgrass plant response rating [9, 17]: 0 | Blackgrass plant response rating [9, 18]: 0 | Plant response rating, Blackgrass [9, 19]: 0 | Plant response rating (scale of 0 to 100), Blackgrass ([9]; Preemergence, 250 g ai/ha): 0 | Plant response rating, Ryegrass, Italian [10, 13]: 0 | Plant response rating, Ryegrass, Italian [10, 14]: 0 | Plant response rating, Ryegrass, Italian [10, 15]: 0 | Plant response rating, Ryegrass, Italian [10, 16]: 0 | Ryegrass, Italian plant response rating [10, 17]: 0 | Ryegrass, Italian plant response rating [10, 18]: 0 | Plant response rating, Ryegrass, Italian [10, 19]: 0 | Plant response rating (scale of 0 to 100), Ryegrass, Italian ([10]; Preemergence, 250 g ai/ha): 0 | Plant response rating, Waterhemp [11, 13]: 0 | Plant response rating, Waterhemp [11, 14]: 0 | Plant response rating, Waterhemp [11, 15]: 5 | Plant response rating, Waterhemp [11, 16]: 5 | Waterhemp plant response rating [11, 17]: 0 | Waterhemp plant response rating [11, 18]: 0 | Plant response rating, Waterhemp [11, 19]: 0 | Plant response rating (scale of 0 to 100), Waterhemp ([11]; Preemergence, 250 g ai/ha): 0 | Plant response rating, Sedge, Umbrella [12]: 0

O=C1NCC(c2cccc(Br)c2)C1C(=O)Nc1ccccc1F (stereo not shown) [Compound 307]
Crabgrass, Large plant response rating [1, 17]: 90 | Crabgrass, Large plant response rating [1, 18]: 95 | Plant response rating, Crabgrass, Large [1, 22]: 95 | Plant response rating (scale of 0 to 100), Crabgrass, Large ([1]; Preemergence, 250 g ai/ha): 100 | Velvetleaf plant response rating [2, 18]: 0 | Plant response rating, Velvetleaf [2, 22]: 0 | Plant response rating (scale of 0 to 100), Velvetleaf ([2]; Preemergence, 250 g ai/ha): 0 | Plant response rating, Corn ([3]; 125 g ai/ha, visual rating on 0 to 100 scale (0 no effect, 100 complete control), approx. 10 days): 0 | Plant response rating, Corn [3, 21]: 60 | Plant response rating, Rice [4]: 0 | Plant response rating, Barnyardgrass [5]: 65 | Plant response rating, Ducksalad [6]: 98 | Soybean plant response rating [7, 18]: 0 | Plant response rating, Soybean [7, 22]: 0 | Plant response rating (scale of 0 to 100), Soybean ([7]; Preemergence, 250 g ai/ha): 0 | Oilseed Rape plant response rating [8, 17]: 0 | Oilseed Rape plant response rating [8, 18]: 0 | Plant response rating, Oilseed Rape [8, 22]: 0 | Plant response rating (scale of 0 to 100), Oilseed Rape ([8]; Preemergence, 250 g ai/ha): 5 | Blackgrass plant response rating [9, 17]: 0 | Blackgrass plant response rating [9, 18]: 0 | Plant response rating, Blackgrass [9, 22]: 10 | Plant response rating (scale of 0 to 100), Blackgrass ([9]; Preemergence, 250 g ai/ha): 5 | Ryegrass, Italian plant response rating [10, 18]: 0 | Plant response rating, Ryegrass, Italian [10, 22]: 5 | Plant response rating (scale of 0 to 100), Ryegrass, Italian ([10]; Preemergence, 250 g ai/ha): 10 | Waterhemp plant response rating [11, 18]: 0 | Plant response rating, Waterhemp [11, 22]: 0 | Plant response rating (scale of 0 to 100), Waterhemp ([11]; Preemergence, 250 g ai/ha): 0 | Plant response rating, Sedge, Umbrella [12]: 0

O=C1NCC(c2cccc(Cl)c2)C1C(=O)Nc1cccc(F)c1F (racemic) [Compound 275]
Plant response rating, Crabgrass, Large [1, 13]: 15 | Plant response rating, Crabgrass, Large [1, 14]: 40 | Plant response rating, Crabgrass, Large [1, 15]: 65 | Plant response rating, Crabgrass, Large [1, 16]: 85 | Crabgrass, Large plant response rating [1, 17]: 90 | Crabgrass, Large plant response rating [1, 18]: 95 | Plant response rating, Crabgrass, Large [1, 19]: 100 | Plant response rating (scale of 0 to 100), Crabgrass, Large ([1]; Preemergence, 250 g ai/ha): 100 | Plant response rating, Velvetleaf [2, 13]: 5 | Plant response rating, Velvetleaf [2, 14]: 10 | Plant response rating, Velvetleaf [2, 15]: 10 | Plant response rating, Velvetleaf [2, 16]: 50 | Velvetleaf plant response rating [2, 17]: 0 | Velvetleaf plant response rating [2, 18]: 0 | Plant response rating, Velvetleaf [2, 19]: 25 | Plant response rating (scale of 0 to 100), Velvetleaf ([2]; Preemergence, 250 g ai/ha): 30 | Plant response rating, Corn [3, 20]: 40 | Plant response rating, Corn [3, 21]: 90 | Plant response rating, Rice [4]: 0 | Plant response rating, Barnyardgrass [5]: 85 | Plant response rating, Ducksalad [6]: 100 | Plant response rating, Soybean [7, 13]: 0 | Plant response rating, Soybean [7, 14]: 0 | Plant response rating, Soybean [7, 15]: 0 | Plant response rating, Soybean [7, 16]: 10 | Soybean plant response rating [7, 17]: 0 | Soybean plant response rating [7, 18]: 0 | Plant response rating, Soybean [7, 19]: 0 | Plant response rating (scale of 0 to 100), Soybean ([7]; Preemergence, 250 g ai/ha): 15 | Plant response rating, Oilseed Rape [8, 13]: 5 | Plant response rating, Oilseed Rape [8, 14]: 5 | Plant response rating, Oilseed Rape [8, 15]: 35 | Plant response rating, Oilseed Rape [8, 16]: 45 | Oilseed Rape plant response rating [8, 17]: 0 | Oilseed Rape plant response rating [8, 18]: 50 | Plant response rating, Oilseed Rape [8, 19]: 90 | Plant response rating (scale of 0 to 100), Oilseed Rape ([8]; Preemergence, 250 g ai/ha): 90 | Plant response rating, Blackgrass [9, 13]: 0 | Plant response rating, Blackgrass [9, 14]: 0 | Plant response rating, Blackgrass [9, 15]: 5 | Plant response rating, Blackgrass [9, 16]: 40 | Blackgrass plant response rating [9, 17]: 45 | Blackgrass plant response rating [9, 18]: 60 | Plant response rating, Blackgrass [9, 19]: 70 | Plant response rating (scale of 0 to 100), Blackgrass ([9]; Preemergence, 250 g ai/ha): 80 | Plant response rating, Ryegrass, Italian [10, 13]: 0 | Plant response rating, Ryegrass, Italian [10, 14]: 0 | Plant response rating, Ryegrass, Italian [10, 15]: 5 | Plant response rating, Ryegrass, Italian [10, 16]: 25 | Ryegrass, Italian plant response rating [10, 17]: 15 | Ryegrass, Italian plant response rating [10, 18]: 40 | Plant response rating, Ryegrass, Italian [10, 19]: 50 | Plant response rating (scale of 0 to 100), Ryegrass, Italian ([10]; Preemergence, 250 g ai/ha): 60 | Plant response rating, Waterhemp [11, 13]: 0 | Plant response rating, Waterhemp [11, 14]: 0 | Plant response rating, Waterhemp [11, 15]: 0 | Plant response rating, Waterhemp [11, 16]: 20 | Waterhemp plant response rating [11, 17]: 0 | Waterhemp plant response rating [11, 18]: 0 | Plant response rating, Waterhemp [11, 19]: 15 | Plant response rating (scale of 0 to 100), Waterhemp ([11]; Preemergence, 250 g ai/ha): 60 | Plant response rating, Sedge, Umbrella [12]: 30
